This note sets out measurements from patent US7579356B2, “Thia-tetraazaacenaphthylene kinase inhibitors” (Janssen Pharmaceutica NV, priority 2005, dated 2009).

The target in experiment [1] is T1, HER-2 (Homo sapiens, UniProt P04626).
T1 construct: His6 with thrombin site (N); purchased Proqinase (Freiburg, Germany)
Briefly: HER-2 Kinase Assay. Type of experiment: biochemical. The following applies: for IC50: value in parentheses; for inhibition at 1 µM: test concentration of 1 μM. Here is the method:
The HER-2 kinase used was purified at Proqinase (Freiburg, Germany) from a construct that consisted of a fusion of GST (Glutathione-S-Transferase), HIS6-Thrombin and the nucleotides encoding amino acids 679 to 1255 of HER-2 (Accession Number M11730).
A mixture of a 10× kinase reaction buffer (600 mM Hepes at pH 7.5, 30 mM Magnesium Chloride, 0.03 mM Sodium Vanadate and 500 μg/mL PEG 20,000), DTT (1.2 mM final from a 10 mM stock), APT (1 μM from a 10 mM stock), biotinylated polyGluTyr (1.5 ng/μL final from stock of 1 μg/μL) prepared by Upstate Biotechnologies, Lake Placid, N.Y.), Manganese Chloride (3 mM final from a 1 M stock), γ-^33P-ATP (10 μCl/μL stock) and water (70 μL/well) was added to each well of a Streptavidin Flashplate (Cat. # SMP103, NEN, Boston, Mass.).
Test compound stock (1 μL) was added to the appropriate wells. Diluted GSTHER2 kinase (6.7 ng/μL diluted into 50 mM Tris-HCl at pH 8.0 and 0.1% bovine serum albumin) (30 μL) was added (total volume of 200 ng/well) to initiate the reactions.
The reaction plates were incubated at 30° C. for 1 hr. The reaction was terminated by aspirating the reaction mixture from the plate wells and washing the wells three times with a 1×PBS stop buffer (300 μL) and 100 mM EDTA. After the final wash, the same stop buffer (200 μL) was again added to the wells. The plates were then sealed and read on the TopCount scintillation counter.
The Her-2 inhibition values were derived according to the procedure described in Example 164 and are shown as percent in Table 4 at a test concentration of 1 μM. For those compounds with an IC50, the IC50 value in μM is shown in parentheses. For compounds with multiple test values, each value represents a separate assay result.

Experiment [2] concerns the target T2, EGFR (Homo sapiens, UniProt P00533).
T2 construct: The intracellular portion of EGFR started at nucleotide 2189 (corresponding to amino acid 667) and ended at the termination codon; made in house; host or cells: Sf9 insect cells (baculovirus)
Kind of experiment: EGFR Kinase Assay. Type of experiment: biochemical. The note with it: for IC50: GST-EGFR, ATP 5 μM; for inhibition at 2 µM: test concentration of 2 μM, compounds without an IC50, read-out: EGFR inhibition in percent. In a few lines: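 Potency came from triplicate 16-point half-log titrations starting at 200 uM, with IC50 fitted from % inhibition against log concentration, or % inhibition at 2 μM otherwise. Reaction: Sf9-made GST–EGFR cytoplasmic region (aa 667 onward), biotin-polyGluTyr, 5 μM ATP with 33P tracer, pH 8.0 Tris/Mg/vanadate/DTT, 30 °C for 1 h; captured on streptavidin Flashplates and counted.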

T2 sequence (P00533 669-1210 limits assumed): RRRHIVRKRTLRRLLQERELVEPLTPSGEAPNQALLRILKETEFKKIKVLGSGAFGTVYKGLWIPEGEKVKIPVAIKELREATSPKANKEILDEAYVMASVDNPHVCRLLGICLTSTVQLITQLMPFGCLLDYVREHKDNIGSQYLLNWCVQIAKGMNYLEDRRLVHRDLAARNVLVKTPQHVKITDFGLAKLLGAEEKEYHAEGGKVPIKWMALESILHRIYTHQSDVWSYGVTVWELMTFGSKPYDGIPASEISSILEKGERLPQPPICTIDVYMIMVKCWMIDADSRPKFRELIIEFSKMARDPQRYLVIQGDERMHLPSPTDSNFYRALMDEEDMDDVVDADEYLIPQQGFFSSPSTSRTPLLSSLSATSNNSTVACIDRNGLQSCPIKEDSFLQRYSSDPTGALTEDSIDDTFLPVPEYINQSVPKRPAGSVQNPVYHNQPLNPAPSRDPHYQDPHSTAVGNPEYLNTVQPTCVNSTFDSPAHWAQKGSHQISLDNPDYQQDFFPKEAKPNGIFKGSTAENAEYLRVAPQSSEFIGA
T1 sequence (P04626 679-1255): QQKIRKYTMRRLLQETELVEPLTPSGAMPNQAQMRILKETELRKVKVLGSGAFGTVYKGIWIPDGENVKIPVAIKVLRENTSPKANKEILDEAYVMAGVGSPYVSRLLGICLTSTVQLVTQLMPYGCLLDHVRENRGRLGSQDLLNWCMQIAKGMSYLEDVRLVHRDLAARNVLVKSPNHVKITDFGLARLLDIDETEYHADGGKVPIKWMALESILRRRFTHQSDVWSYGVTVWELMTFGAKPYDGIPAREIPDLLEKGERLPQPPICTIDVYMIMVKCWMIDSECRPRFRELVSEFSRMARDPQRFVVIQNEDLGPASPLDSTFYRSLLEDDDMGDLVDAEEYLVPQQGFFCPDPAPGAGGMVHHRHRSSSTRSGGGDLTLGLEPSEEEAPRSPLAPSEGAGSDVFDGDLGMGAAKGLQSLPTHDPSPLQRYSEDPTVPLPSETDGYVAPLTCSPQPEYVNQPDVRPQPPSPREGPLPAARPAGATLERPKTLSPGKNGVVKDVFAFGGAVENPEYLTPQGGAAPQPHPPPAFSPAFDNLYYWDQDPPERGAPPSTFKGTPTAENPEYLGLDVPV

For `O=C(Nc1ccc(CN2CCCCC2)cc1)c1sc2ncnc3c2c1NC(=O)N3c1ccc([S+]([O-])c2ccccc2)cc1` (stereo not shown) [Cpd 205, 5-(4-benzenesulfinyl-phenyl)-4-oxo-4,5-dihydro-3H-1-thia-3,5,6,8-tetraaza-acenaphthylene-2-carboxylic acid (4-piperidin-1-ylmethyl-phenyl)-amide], the IC50 (commonly the point on the concentration scale where inhibition reaches its midpoint) in experiment [1] was determined as 1440 nM; in experiment [2], 689 nM.
Take `O=C(Nc1ccc(CN2CCOCC2)cc1)c1sc2ncnc3c2c1NC(=O)N3c1ccc(Oc2cccnc2)cc1` [Cpd 237, 4-oxo-5-[4-(pyridin-3-yloxy)-phenyl]-4,5-dihydro-3H-1-thia-3,5,6,8-tetraaza-acenaphthylene-2-carboxylic acid (4-morpholin-4-ylmethyl-phenyl)-amide]: the values for the IC50 in experiment [1] and in experiment [2] were 454 nM and 90 nM, respectively.
Consider `CN1CCC(NC(=O)c2sc3ncnc4c3c2NC(=O)N4c2ccc3c(cnn3Cc3cccc(F)c3)c2)CC1` [Cpd 177, 5-[1-(3-fluoro-benzyl)-1H-indazol-5-yl]-4-oxo-4,5-dihydro-3H-1-thia-3,5,6,8-tetraaza-acenaphthylene-2-carboxylic acid (1-methyl-piperidin-4-yl)-amide], for which the IC50 in experiment [1] is 1500 nM; in experiment [2] it was 75 nM.
`O=C(c1sc2ncnc3c2c1NC(=O)N3c1ccc(Oc2ccccc2)cc1)N1CCN(CCN2CCOCC2)CC1` [Cpd 213, 2-[4-(2-morpholin-4-yl-ethyl)-piperazine-1-carbonyl]-5-(4-phenoxy-phenyl)-3H,5H-1-thia-3,5,6,8-tetraaza-acenaphthylen-4-one]: in experiment [1], the IC50 is above 10000 nM. For the same compound, the inhibition (usually the change of the read-out against control, counted positive when it falls) at 2 µM in experiment [2] worked out at 48%.
Take `COc1ccc(Cl)cc1N1C(=O)Nc2c(C(=O)Nc3ccc(CN4CCCCC4)cc3)sc3ncnc1c23` [Cpd 72, 5-(5-chloro-2-methoxy-phenyl)-4-oxo-4,5-dihydro-3H-1-thia-3,5,6,8-tetraaza-acenaphthylene-2-carboxylic acid (4-piperidin-1-ylmethyl-phenyl)-amide]: the inhibition at 1 µM in experiment [1] amounted to 4%. For the same compound, the inhibition at 2 µM in experiment [2] was found to be 57%.
As to `COc1ccc(N2C(=O)Nc3c(C(=O)Nc4ccc(CN5CCOCC5)cc4)sc4ncnc2c34)cc1Br` [Cpd 181, 5-(3-bromo-4-methoxy-phenyl)-4-oxo-4,5-dihydro-3H-1-thia-3,5,6,8-tetraaza-acenaphthylene-2-carboxylic acid (4-morpholin-4-ylmethyl-phenyl)-amide], the values for the IC50 in experiment [1] and in experiment [2] were 2190 nM and 887 nM, respectively.
The compound `C#Cc1cccc(N2C(=O)Nc3c(C(=O)Nc4ccc(CN5CCCC5)cc4)sc4ncnc2c34)c1` [Cpd 15, 5-(3-ethynyl-phenyl)-4-oxo-4,5-dihydro-3H-1-thia-3,5,6,8-tetraaza-acenaphthylene-2-carboxylic acid (4-pyrrolidin-1-ylmethyl-phenyl)-amide] gave an inhibition at 1 µM in experiment [1] of 21%. In experiment [2], this compound showed an IC50 of 26 nM.
For `O=C(Nc1ccc(CN2CCCCC2)cc1)c1sc2ncnc3c2c1NC(=O)N3c1cccc(Oc2ccccc2)c1` [Cpd 197, 4-oxo-5-(3-phenoxy-phenyl)-4,5-dihydro-3H-1-thia-3,5,6,8-tetraaza-acenaphthylene-2-carboxylic acid (4-piperidin-1-ylmethyl-phenyl)-amide], the IC50 in experiment [1] was 175 nM; in experiment [2], 39 nM.
For `COc1cc(NC(=O)c2sc3ncnc4c3c2NC(=O)N4c2ccc(OCc3cccs3)c(Cl)c2)ccc1CN1CCCCC1` [Cpd 228, 5-[3-chloro-4-(thiophen-2-ylmethoxy)-phenyl]-4-oxo-4,5-dihydro-3H-1-thia-3,5,6,8-tetraaza-acenaphthylene-2-carboxylic acid (3-methoxy-4-piperidin-1-ylmethyl-phenyl)-amide], the IC50 in experiment [1] amounted to 33 nM; in experiment [2], 17 nM.
For `O=C(Nc1ccc(CN2CCOCC2)c(C(F)(F)F)c1)c1sc2ncnc3c2c1NC(=O)N3c1ccc(Oc2ccccc2)cc1` [Cpd 231, 4-oxo-5-(4-phenoxy-phenyl)-4,5-dihydro-3H-1-thia-3,5,6,8-tetraaza-acenaphthylene-2-carboxylic acid (4-morpholin-4-ylmethyl-3-trifluoromethyl-phenyl)-amide] the same measures were 1050 nM and 314 nM.
With `O=C(Nc1ccc(CN2CCOCC2)cc1)c1sc2ncnc3c2c1NC(=O)N3c1ccc(Cl)cc1Cl` [Cpd 29, 5-(2,4-dichloro-phenyl)-4-oxo-4,5-dihydro-3H-1-thia-3,5,6,8-tetraaza-acenaphthylene-2-carboxylic acid (4-morpholin-4-ylmethyl-phenyl)-amide], the IC50 was determined as 884 nM in experiment [1] and 873 nM in experiment [2].
Take `O=C(Nc1ccc(CN2CCCCC2)cc1)c1sc2ncnc3c2c1NC(=O)N3c1ccc(Oc2cccc(F)c2)c(Cl)c1` [Cpd 160, 5-[3-chloro-4-(3-fluoro-phenoxy)-phenyl]-4-oxo-4,5-dihydro-3H-1-thia-3,5,6,8-tetraaza-acenaphthylene-2-carboxylic acid (4-piperidin-1-ylmethyl-phenyl)-amide]: the IC50 in experiment [1] stood at 155 nM; in experiment [2], 23 nM.
For `O=C(Nc1ccc(CN2CCOCC2)c(OC(F)(F)F)c1)c1sc2ncnc3c2c1NC(=O)N3c1ccc(Oc2ccccc2)cc1` [Cpd 239, 4-oxo-5-(4-phenoxy-phenyl)-4,5-dihydro-3H-1-thia-3,5,6,8-tetraaza-acenaphthylene-2-carboxylic acid (4-morpholin-4-ylmethyl-3-trifluoromethoxy-phenyl)-amide], the IC50 is 414 nM in experiment [1] and 114 nM in experiment [2].
As for `CCOC(=O)c1sc2ncnc3c2c1NC(=O)N3c1ccc(OCc2cccs2)c(Cl)c1` [Cpd 223, 5-[3-chloro-4-(thiophen-2-ylmethoxy)-phenyl]-4-oxo-4,5-dihydro-3H-1-thia-3,5,6,8-tetraaza-acenaphthylene-2-carboxylic acid ethyl ester], the half-maximal inhibitory concentration (IC50) in experiment [1] was above 100000 nM. The inhibition at 2 µM in experiment [2] came to 5%.
Take `COc1cc(NC(=O)c2sc3ncnc4c3c2NC(=O)N4c2ccc(Br)cc2)ccc1CN1CCOCC1` [Cpd 201, 5-(4-bromo-phenyl)-4-oxo-4,5-dihydro-3H-1-thia-3,5,6,8-tetraaza-acenaphthylene-2-carboxylic acid (3-methoxy-4-morpholin-4-ylmethyl-phenyl)-amide]: the IC50 in experiment [1] is 92 nM; in experiment [2], 106 nM.
As for `CN1CCCN(C(=O)c2sc3ncnc4c3c2NC(=O)N4c2ccc(Oc3ccccc3)cc2)CC1` [Cpd 214, 2-(4-methyl-[1,4]diazepane-1-carbonyl)-5-(4-phenoxy-phenyl)-3H,5H-1-thia-3,5,6,8-tetraaza-acenaphthylen-4-one], the figures for the IC50 in experiment [1] and in experiment [2] were above 10000 nM and 1300 nM, respectively.
With `CN1CCN(NC(=O)c2sc3ncnc4c3c2NC(=O)N4c2ccc(Oc3ccccc3)cc2)CC1` [Cpd 215, 4-oxo-5-(4-phenoxy-phenyl)-4,5-dihydro-3H-1-thia-3,5,6,8-tetraaza-acenaphthylene-2-carboxylic acid (4-methyl-piperazin-1-yl)-amide], the concentration for half-maximal inhibition (IC50) in experiment [1] came to 4460 nM; in experiment [2], 121 nM.
As to `COc1cc(NC(=O)c2sc3ncnc4c3c2NC(=O)N4c2ccc(Oc3ccccc3)cc2)ccc1CN1CCCCC1` [Cpd 242, 4-oxo-5-(4-phenoxy-phenyl)-4,5-dihydro-3H-1-thia-3,5,6,8-tetraaza-acenaphthylene-2-carboxylic acid (3-methoxy-4-piperidin-1-ylmethyl-phenyl)-amide], the IC50 in experiment [1] amounted to 42 nM; in experiment [2], 22 nM.
For `CN1CCC(NC(=O)c2sc3ncnc4c3c2NC(=O)N4c2ccc(OCc3cccs3)c(Cl)c2)CC1` [Cpd 230, 5-[3-chloro-4-(thiophen-2-ylmethoxy)-phenyl]-4-oxo-4,5-dihydro-3H-1-thia-3,5,6,8-tetraaza-acenaphthylene-2-carboxylic acid (1-methyl-piperidin-4-yl)-amide] the same measures were 367 nM and 109 nM.
`O=C(Nc1ccc(CN2CCCCC2)cc1)c1sc2ncnc3c2c1NC(=O)N3c1ccc(Oc2ccccc2)c(Br)c1` [Cpd 188, 5-(3-bromo-4-phenoxy-phenyl)-4-oxo-4,5-dihydro-3H-1-thia-3,5,6,8-tetraaza-acenaphthylene-2-carboxylic acid (4-piperidin-1-ylmethyl-phenyl)-amide]: the IC50 in experiment [1] is 83 nM; in experiment [2] it was 49 nM.
